# Measurements taken from US10188603B2, “Topical systems and methods for treating sexual dysfunction” (priority 2013, dated 2019).
# Tests used:
# [1] = tested on: micro-capillary blood flow to skin; assay: Laser Doppler capillary blood flow in humans, 10,000 ppm NO in closed chamber (Example 5); type: in vivo, human; settings: applied to the skin at 1/10% in alcohol
# From the text: The formulation used in these studies contained nitric oxide dispersed in a lipid matrix. […] Nitric oxide is a very rapid acting molecule, and these studies used a system that employed laser Doppler with a covered chamber. The formulation was placed into the chamber and then attached to the skin by an adhesive layer on the covering. This provided a stable measuring device as determined by multiple normal evaluations of the capillary blood flow without treatment of nitric oxide.
# A known positive control, methyl nicotinate, was applied to the skin at a concentration of 1/10% in alcohol. […] The vascular dynamics are such that when the blood vessels dilate physical parameters follow Bernoulli's law. This states that as one increases the diameter of a tube containing a liquid to flow will increase but the pressure and the speed of the liquid will decrease. The laser Doppler device accurately measured these parameters.
# The test product was labeled as 10,000 ppm NO (nitric oxide). The study participants had 100 mg of the test product applied in a closed Hilltop chamber on the forearm. […]
# A Moor Instruments DRT4 Laser Doppler Blood Flow Monitor (Devon, England) was used in these studies. The laser Doppler technique measured blood flow in the microcapillaries of the skin that are close to the skin surface and the blood flow in underlying arterioles and venules that help to regulate skin temperature. […]
# [2] = tested on: capillary circulation of the skin; assay: Laser Doppler circulation in five human subjects (Example 8); type: in vivo; settings: positive control formulation containing 0.1% methyl nicotinate
# From the text: This example illustrates delivery of nitric oxide formulations to five human subjects, using procedures and formulations similar to those discussed in Example 5. Each person served as their own control for the testing. A Moor Instruments Laser Doppler was used to determine circulation. […] The formulations used produce positive, almost immediate results when applied to the skin which, in these studies, was manifested by vasodilatation of the cutaneous vascular system.
# For each subject, the following creams were applied: a negative control formulation (containing no NO), 0.010 gram of a 10,000 ppm NO formulation, 0.020 gram of a 10,000 ppm NO formulation, and a positive control formulation containing 0.1% methyl nicotinate. The formulations were prepared using procedures similar to those discussed in Example 1.
smiles,measurement,setting,value
COC(=O)c1cccnc1 [methyl nicotinate],laser Doppler response of positive control,[1],rapid response typical of the vasodilator
same,vasodilatation (laser Doppler),[2],vasodilatation was observed
